Experiments:
[1] = system: PD20 FANCD2−/− cells complemented with wild-type FANCD2; assay: Clonogenic assay for cisplatin sensitivity; assay type: cell-based, human
Procedure: (§1) The genetic interaction between FANCD2 and DNA2 was examined in the repair of cisplatin- or formaldehyde-induced damage. Using PD20 FANCD2^−/− cells complemented with wild-type FANCD2 or an empty vector, DNA2 was depleted using shRNA techniques (FIG. 2A). As shown, DNA2 was reduced to levels undetectable by western blotting. The cell lines were exposed to cisplatin, and a clonogenic assay was performed (FIG. 2B). […] This rescue is stronger than previously reported, consistent with lower residual DNA2 levels detected by western blotting in the knockdowns (Karanja et al., 2012, Cell Cycle, 11:3983-3996, the entire contents of which are herein incorporated by reference.)
(§2) For acute exposure, formaldehyde (0, 40, 80, 160, 320 μM) was added for 4 h in PBS. Cells were washed in PBS and grown for 5 days. For chronic exposure, cells were continuously grown in formaldehyde (0, 30, 60, 90, 120 μM) for 6 days. To determine viability, cells were fixed and stained with crystal violet and scanned with a Licor Odyssey scanner (LiCor Biosciences). The surviving fraction was determined by comparing treated with the non-treated controls. […] Surviving fraction was determined by comparing treated with the non-treated controls.

PD20 FANCD2−/− cells = assay: Clonogenic assay for cisplatin sensitivity; assay type: cell-based, human; settings: FANCD2−/− cells (empty vector)
Procedure: as §1, §2

SMILES: N.N.[Cl][Pt][Cl] [cisplatin]
- sensitivity of cells to cisplatin (clonogenic survival) [1]: resistant
- sensitivity of cells to cisplatin (clonogenic survival) (PD20 FANCD2−/− cells): very sensitive

Reference: patent US9322022B2, “Inhibition of DNA2 in fanconi anemia” (California Institute of Technology, priority 2013, dated 2016)
